Measured values taken from ChEMBL document CHEMBL1201862, “PubChem BioAssay data set” (2004).
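Grown in 96-well plates, cells were treated for 48 hours with each compound at five concentrations. Insufficient inhibition: endpoint recorded as highest concentration tested. Abbreviation: GI50, concentration required for 50% inhibition of growth.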 The source made the active and inactive calls. No stated cut-off is given here; in the data, active = GI50 up to about 1.1 µM and inactive = higher.

How the values were obtained:
Experiment in all cases: NCI tumour cell line growth inhibition, 48 h
HL-60 = tested on: HL-60
SNB-19 = tested on: SNB-19
EKVX = tested on: EKVX
OVCAR-8 = tested on: OVCAR-8
SW-620 = tested on: SW-620
PC-3 = tested on: PC-3
NCI-H226 = tested on: NCI-H226
LOX IMVI = tested on: LOX IMVI
CCRF-CEM = tested on: CCRF-CEM
U-251 = tested on: U-251
NCI-H460 = tested on: NCI-H460
HCC 2998 = tested on: HCC 2998
K562 = tested on: K562
M14 = tested on: M14
MCF7 = tested on: MCF7
DU-145 = tested on: DU-145
OVCAR-4 = tested on: OVCAR-4
SN12C = tested on: SN12C
HCT-116 = tested on: HCT-116
RPMI-8226 = tested on: RPMI-8226

| Compound | GI50 (HL-60) | GI50 (SNB-19) | GI50 (EKVX) | GI50 (OVCAR-8) | GI50 (SW-620) | GI50 (PC-3) | GI50 (NCI-H226) | GI50 (LOX IMVI) | GI50 (CCRF-CEM) | GI50 (U-251) | GI50 (NCI-H460) | GI50 (HCC 2998) | GI50 (K562) | GI50 (M14) | GI50 (MCF7) | GI50 (DU-145) | GI50 (OVCAR-4) | GI50 (SN12C) | GI50 (HCT-116) | GI50 (RPMI-8226) |
| --- | --- | --- | --- | --- | --- | --- | --- | --- | --- | --- | --- | --- | --- | --- | --- | --- | --- | --- | --- | --- |
| COc1ccc(Cc2nc3cc(C(F)(F)F)ccc3n2CCCN(C)C)cc1 | 11.8 µM (inactive) | 27.6 µM (inactive) | 23.6 µM (inactive) | 30.6 µM (inactive) | 20.2 µM (inactive) | 22.9 µM (inactive) | 36.1 µM (inactive) | 19.8 µM (inactive) | 22 µM (inactive) | 17.1 µM (inactive) | 20.3 µM (inactive) | 3.93 µM (inactive) | 14.4 µM (inactive) | 14.7 µM (inactive) | 17.9 µM (inactive) | 19.2 µM (inactive) | 27.2 µM (inactive) | – | – | – |
| FC(F)(F)c1ccc2c(c1)nc(Cc1ccc(Cl)cc1)n2CC1CCCN2CCCCC12 (stereo not drawn) | 2.23 µM (inactive) | 14 µM (inactive) | 11.1 µM (inactive) | 11.3 µM (inactive) | 13.2 µM (inactive) | 8.65 µM (inactive) | 11.9 µM (inactive) | 2.15 µM (inactive) | – | 8.24 µM (inactive) | 7.66 µM (inactive) | 2.11 µM (inactive) | 4.18 µM (inactive) | 2.07 µM (inactive) | 10.2 µM (inactive) | 10 µM (inactive) | 12.2 µM (inactive) | 9.79 µM (inactive) | 6.35 µM (inactive) | – |
| Cc1cn(C2CC(n3cc(Cn4cc(I)c(=O)[nH]c4=O)nn3)C(CO)O2)c(=O)[nH]c1=O (stereo not drawn) | 0.0119 µM (active) | > 100 µM (inactive) | – | > 100 µM (inactive) | > 100 µM (inactive) | > 100 µM (inactive) | > 100 µM (inactive) | – | > 100 µM (inactive) | > 100 µM (inactive) | – | > 100 µM (inactive) | – | > 100 µM (inactive) | > 100 µM (inactive) | > 100 µM (inactive) | > 100 µM (inactive) | > 100 µM (inactive) | > 100 µM (inactive) | > 100 µM (inactive) |
| COc1ccc2c(C)cc(N/N=C/c3ccc(OC)c4ccccc34)nc2c1 | 20.8 µM (inactive) | 18.8 µM (inactive) | 17.7 µM (inactive) | 18.5 µM (inactive) | 7.06 µM (inactive) | 16.9 µM (inactive) | 12.9 µM (inactive) | 3.71 µM (inactive) | 1.93 µM (inactive) | 3.66 µM (inactive) | 16.6 µM (inactive) | – | 10.1 µM (inactive) | 17.1 µM (inactive) | 19.4 µM (inactive) | 4.36 µM (inactive) | 19 µM (inactive) | 2.13 µM (inactive) | 5.35 µM (inactive) | 2.78 µM (inactive) |
| CC(=O)Oc1c(C)c2c(c3ccccc13)OC(C)(C)C2 | 22.4 µM (inactive) | 26.3 µM (inactive) | 19.8 µM (inactive) | 16.8 µM (inactive) | 19.8 µM (inactive) | 22.6 µM (inactive) | 22 µM (inactive) | – | 24.7 µM (inactive) | 18.6 µM (inactive) | 19.2 µM (inactive) | 16.5 µM (inactive) | 29.2 µM (inactive) | 16.4 µM (inactive) | 17.5 µM (inactive) | 17.3 µM (inactive) | 16.1 µM (inactive) | 18.6 µM (inactive) | 18 µM (inactive) | 15.7 µM (inactive) |
| COC1OC(CO)C(O)C(OC(=O)c2cc(O)c(O)c(O)c2)C1OC(=O)c1cc(O)c(O)c(O)c1 (stereo not drawn) | 51.9 µM (inactive) | > 100 µM (inactive) | > 100 µM (inactive) | > 100 µM (inactive) | 41.6 µM (inactive) | 95.5 µM (inactive) | > 100 µM (inactive) | 23.3 µM (inactive) | 42.7 µM (inactive) | > 100 µM (inactive) | 69.5 µM (inactive) | – | 35.6 µM (inactive) | 45.4 µM (inactive) | > 100 µM (inactive) | > 100 µM (inactive) | 23.1 µM (inactive) | 61.9 µM (inactive) | 37.7 µM (inactive) | > 100 µM (inactive) |
| COc1ccc(N2C(=O)C3c4[nH]c5ccccc5c4C4CCCCCCCC4C3C2=O)cc1 (stereo not drawn) | > 10 µM (inactive) | > 10 µM (inactive) | > 10 µM (inactive) | > 10 µM (inactive) | > 10 µM (inactive) | > 10 µM (inactive) | > 10 µM (inactive) | – | 2.07 µM (inactive) | > 10 µM (inactive) | > 10 µM (inactive) | > 10 µM (inactive) | > 10 µM (inactive) | > 10 µM (inactive) | > 10 µM (inactive) | > 10 µM (inactive) | > 10 µM (inactive) | > 10 µM (inactive) | 1.7 µM (inactive) | > 10 µM (inactive) |
| Cc1cc(C#N)c(Nc2ccc(F)cc2[N+](=O)[O-])s1 | – | > 100 µM (inactive) | > 100 µM (inactive) | > 100 µM (inactive) | > 100 µM (inactive) | > 100 µM (inactive) | > 100 µM (inactive) | – | > 100 µM (inactive) | 26.8 µM (inactive) | > 100 µM (inactive) | > 100 µM (inactive) | > 100 µM (inactive) | 71.1 µM (inactive) | – | > 100 µM (inactive) | > 100 µM (inactive) | > 100 µM (inactive) | > 100 µM (inactive) | > 100 µM (inactive) |
| C[C@]12CC[C@H](O)CC1=CC[C@@H]1[C@@H]2CC[C@]2(C)NC(=O)/C(=C\c3ccccc3)C[C@@H]12 | – | 14.7 µM (inactive) | 14 µM (inactive) | 21.1 µM (inactive) | 16.9 µM (inactive) | 13.3 µM (inactive) | 14.9 µM (inactive) | 16.8 µM (inactive) | 17 µM (inactive) | 14.1 µM (inactive) | 23.9 µM (inactive) | 13.4 µM (inactive) | 39.6 µM (inactive) | 15.8 µM (inactive) | 14.4 µM (inactive) | 16.4 µM (inactive) | 5.64 µM (inactive) | 23 µM (inactive) | 14.2 µM (inactive) | 21.6 µM (inactive) |
| c1ccc(C(=NCCC2CNc3ccccc32)c2ccccc2)cc1 (stereo not drawn) | – | > 100 µM (inactive) | > 100 µM (inactive) | > 100 µM (inactive) | > 100 µM (inactive) | > 100 µM (inactive) | – | – | > 100 µM (inactive) | > 100 µM (inactive) | > 100 µM (inactive) | > 100 µM (inactive) | > 100 µM (inactive) | > 100 µM (inactive) | > 100 µM (inactive) | > 100 µM (inactive) | > 100 µM (inactive) | – | > 100 µM (inactive) | > 100 µM (inactive) |
| N#Cc1sc2c(c1O)c(=O)n(-c1ccccc1)c(=S)n2-c1ccccc1 | > 100 µM (inactive) | > 100 µM (inactive) | – | > 100 µM (inactive) | > 100 µM (inactive) | – | > 100 µM (inactive) | > 100 µM (inactive) | > 10 µM (inactive) | > 100 µM (inactive) | > 100 µM (inactive) | > 100 µM (inactive) | 89.1 µM (inactive) | > 100 µM (inactive) | > 100 µM (inactive) | > 100 µM (inactive) | > 100 µM (inactive) | > 100 µM (inactive) | – | > 100 µM (inactive) |
| Cn1c(=O)oc2cc(C(=S)N3CCCCC3)ccc21 | > 100 µM (inactive) | > 100 µM (inactive) | > 100 µM (inactive) | > 100 µM (inactive) | > 100 µM (inactive) | > 100 µM (inactive) | > 100 µM (inactive) | > 100 µM (inactive) | 61.8 µM (inactive) | > 100 µM (inactive) | > 100 µM (inactive) | – | > 100 µM (inactive) | > 100 µM (inactive) | > 100 µM (inactive) | > 100 µM (inactive) | – | > 100 µM (inactive) | > 100 µM (inactive) | > 100 µM (inactive) |
| O=C1/C(=C\c2cccc(Oc3ccccc3)c2)S(=O)(=O)C(c2ccccc2)N1c1cc(Cl)ccc1Cl (stereo not drawn) | – | 16 µM (inactive) | 27.8 µM (inactive) | 5.06 µM (inactive) | 3.83 µM (inactive) | 32.4 µM (inactive) | – | 5.25 µM (inactive) | 3.05 µM (inactive) | 16.5 µM (inactive) | 28.1 µM (inactive) | 21.7 µM (inactive) | 3.74 µM (inactive) | 16.5 µM (inactive) | 4.13 µM (inactive) | 20.9 µM (inactive) | 23.1 µM (inactive) | 16.9 µM (inactive) | 4.6 µM (inactive) | 5.94 µM (inactive) |
| Fc1cc(-c2cc(-c3ccccc3)no2)c(Cl)cc1Cl | 19.7 µM (inactive) | > 40.6 µM (inactive) | 11.4 µM (inactive) | > 26.8 µM (inactive) | 20.9 µM (inactive) | 13.7 µM (inactive) | – | 13.2 µM (inactive) | 10.7 µM (inactive) | 10.3 µM (inactive) | 16.7 µM (inactive) | – | 29.4 µM (inactive) | 23.1 µM (inactive) | 4.25 µM (inactive) | > 32.3 µM (inactive) | 22.9 µM (inactive) | > 32.4 µM (inactive) | 13.8 µM (inactive) | 6.93 µM (inactive) |
| O=C(N/N=C\c1ccc([N+](=O)[O-])cc1)Nc1ccccc1 | > 100 µM (inactive) | > 100 µM (inactive) | – | > 100 µM (inactive) | > 100 µM (inactive) | > 100 µM (inactive) | > 100 µM (inactive) | > 10 µM (inactive) | > 100 µM (inactive) | > 100 µM (inactive) | > 100 µM (inactive) | – | > 100 µM (inactive) | > 100 µM (inactive) | > 100 µM (inactive) | > 100 µM (inactive) | > 100 µM (inactive) | > 100 µM (inactive) | > 100 µM (inactive) | > 100 µM (inactive) |
